Measurements reported in patent US20220220135A1 (BAR-ILAN UNIVERSITY, priority 2019, published 2022).

Tests used:
NTPDase3 = target: T1, NTPDase3 (Homo sapiens, UniProt O75355); test: Stability to hydrolysis by human NTPDase3; assay type: in vitro ADME; details: analogue 100 μM; activity with 100 μM ATP = 100%
T1 sequence (O75355 1-529): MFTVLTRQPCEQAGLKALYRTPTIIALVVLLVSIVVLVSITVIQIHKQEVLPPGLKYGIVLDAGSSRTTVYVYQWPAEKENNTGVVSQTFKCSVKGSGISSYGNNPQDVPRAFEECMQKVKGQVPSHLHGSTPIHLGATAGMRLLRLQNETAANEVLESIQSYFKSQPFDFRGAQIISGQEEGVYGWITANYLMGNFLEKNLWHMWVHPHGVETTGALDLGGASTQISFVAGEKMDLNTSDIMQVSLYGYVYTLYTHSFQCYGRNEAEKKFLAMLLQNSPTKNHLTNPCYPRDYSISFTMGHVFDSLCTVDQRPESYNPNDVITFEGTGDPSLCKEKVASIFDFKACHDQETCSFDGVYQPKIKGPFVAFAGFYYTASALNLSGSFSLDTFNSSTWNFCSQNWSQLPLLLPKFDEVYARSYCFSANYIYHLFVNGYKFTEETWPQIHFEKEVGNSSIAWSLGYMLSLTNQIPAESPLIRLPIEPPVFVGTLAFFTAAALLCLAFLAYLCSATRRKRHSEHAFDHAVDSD
Method: Uridine 5′-Pα,α-phosphorodithioate analogues, 9-12, were tested for their stability to degradation by NPP1 and NTPDases. These enzymes are involved in the metabolism of extracellular nucleotides. Analogues 9-12 were not hydrolyzed by hNPP1 (Table 2). […] Analogue 10 was hydrolyzed by hNTPDase1, -2 and -3 at 30-39% the rate of ATP and was slightly hydrolyzed by human NTPDase8 at 16% the rate of ATP.
Analogues 9-12 were incubated in the presence of the indicated ectonucleotidase at a concentration of 100 μM. The activity with 100 μM ATP was set as 100%, which was 329±108, 302±34, 263±51, 195±76 nmol of Pi·min−1·mg of protein−1 for NTPDase1, -2, -3 and -8, respectively, and 34±7 nmol for NPP1. Data presented are the mean±SEM of results from two experiments.

NTPDase1 = target: T2, NTPDase1 (Homo sapiens, UniProt P49961); test: Inhibition of ATPase activity of human NTPDase1; assay type: biochemical; details: analogue at 100 μM; ATP 100 μM as substrate
T2 sequence (P49961 1-510): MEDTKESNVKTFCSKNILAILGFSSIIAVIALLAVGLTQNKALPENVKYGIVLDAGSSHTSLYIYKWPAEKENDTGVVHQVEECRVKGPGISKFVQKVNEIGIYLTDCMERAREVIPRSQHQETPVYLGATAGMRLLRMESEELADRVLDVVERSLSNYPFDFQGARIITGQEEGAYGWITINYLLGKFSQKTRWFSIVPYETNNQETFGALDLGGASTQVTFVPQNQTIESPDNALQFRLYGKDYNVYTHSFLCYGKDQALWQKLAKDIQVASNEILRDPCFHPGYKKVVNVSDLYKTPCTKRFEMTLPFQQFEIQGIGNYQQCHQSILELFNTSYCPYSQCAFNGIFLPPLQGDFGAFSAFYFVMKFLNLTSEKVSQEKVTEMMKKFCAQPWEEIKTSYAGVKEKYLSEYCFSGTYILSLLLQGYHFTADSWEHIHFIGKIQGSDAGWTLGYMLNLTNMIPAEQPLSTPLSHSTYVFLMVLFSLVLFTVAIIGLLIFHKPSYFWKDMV
Method: FIG. 2: Inhibition of NTPDases and NPPs by analogues 9-12 using as substrates ATP (100 μM) for NTPDase1,2,3,8 and pNP-TMP (100 μM) for NPP1,3 (Panel A); and ATP (100 μM) was used as the substrate for NPP1 (Panel B);
At least 2 independent experiments were performed. In panel A, the activity with 100 μM ATP was set as 100%, which was 287±31, 395±67, 278±22, 119±26 nmol of Pi·min−1·mg of protein−1 for human NTPDase1, -2, -3 and -8, respectively, and the activity with 100 μM pNP-TMP was set as 100% which was 67±5, 21±1 nmol of p-nitrophenol·min−1·mg of protein−1 for human NPP1 and NPP3, respectively. In panel B, the activity with 100 μM ATP was set as 100% which was 34±7 nmol of PPi·min−1·mg of protein−1 for NPP1.

human CD39 = target: T3, human CD39 (Homo sapiens, UniProt P49961); test: Inhibition of human CD39, 0.5 μM PSB-170621A as substrate; assay type: biochemical; details: 0.5 μM PSB-170621A as a substrate; n = 3
T3 sequence (P49961 1-510): T2 sequence (P49961 1-510)

human P2Y2R = target: T4, human P2Y2R (Homo sapiens, UniProt P41231); test: Calcium mobilization in 1321N1 astrocytoma cells expressing human P2Y2R; assay type: cell-based
T4 construct: expressed in transfected cells; host or cells: 1321N1 astrocytoma cells
T4 sequence (P41231 whole entry): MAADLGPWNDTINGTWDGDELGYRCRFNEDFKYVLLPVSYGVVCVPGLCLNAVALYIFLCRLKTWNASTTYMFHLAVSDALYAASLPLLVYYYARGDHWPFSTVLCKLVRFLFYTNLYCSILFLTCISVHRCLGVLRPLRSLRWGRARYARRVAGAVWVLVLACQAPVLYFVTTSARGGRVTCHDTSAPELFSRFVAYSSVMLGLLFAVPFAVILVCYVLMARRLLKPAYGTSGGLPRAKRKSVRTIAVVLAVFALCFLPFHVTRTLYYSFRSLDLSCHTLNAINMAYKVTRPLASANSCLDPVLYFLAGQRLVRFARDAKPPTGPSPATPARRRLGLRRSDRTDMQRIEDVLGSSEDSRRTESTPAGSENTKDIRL
Method: Given the structural resemblance of 106-109 to the natural ligands of P2Y receptors, adenine and uracil nucleotides as natural substrates, were assessed for agonist potency on the human P2Y1, P2Y2, P2Y4, and P2Y6 receptor. To evaluate NPP1 selectivity of analogs 106-109, they were tested for their ability to activate of the uridine-nucleotide sensitive human recombinant P2Y1,2,4,6-receptors. The agonist potencies of this series of nucleotide analogues on the Gq protein-coupled human P2Y1R, P2Y2R, P2Y4R, and P2Y6R was determined by assessing its ability to induce calcium mobilization in stably transfected 1321N1 astrocytoma cells (Table 8). The nucleotide analogues were found in calcium mobilization assays to activate the P2Y2R with mid-micromolar potency.

Structure (SMILES)	Relative activity (%) ± SEM of ATP hydrolysis, NTPDase3 (NTPDase3)	inhibition of human NTPDase1 (NTPDase1)	% inhibition ± SEM, human CD39 (human CD39)	% activation at 10 μM, P2Y2 (human P2Y2R)
O=c1ccn([C@@H]2O[C@H](COP(=S)(S)OP(=O)(O)OP(=O)(O)O)[C@@H](O)[C@H]2O)c(=O)[nH]1 (stereo partly drawn) [Analogue 10]	39.7 ± 1.9%	no inhibition		
O=c1ccn([C@@H]2O[C@H](COP(=S)(S)OP(=O)(O)CP(=O)(O)O)[C@@H](O)[C@H]2O)c(=O)[nH]1 (stereo partly drawn) [Analogue 11]		negligible effects		
O=c1ccn([C@@H]2O[C@H](COP(=S)(S)OP(=O)(O)OP(=O)(O)OP(=S)(S)OC[C@H]3O[C@@H](n4ccc(=O)[nH]c4=O)[C@H](O)[C@@H]3O)[C@@H](O)[C@H]2O)c(=O)[nH]1 (stereo partly drawn) [Analogue 12]		selective to NPP1		
Nc1ncnc2c1ncn2COCCOP(=S)(S)OP(=O)(O)O (stereo not drawn) [compound 106]			14 ± 1%	32 ± 18%
